# Experimental data reported in ChEMBL document CHEMBL5223066, “The medicinal chemistry of mitochondrial dysfunction: a critical overview of efforts to modulate mitochondrial health” (RSC Med Chem, 2021).
# What was measured:
# [1] = Induction of mitophagy in human HeLa cells; assay type: functional, cell-based
# hERG (KCNH2) = hERG (KCNH2) (Homo sapiens, UniProt Q12809); experiment: Inhibition of hERG at 30 uM relative to control; assay type: toxicity
# [2] = Efflux ratio in dog MDCK-MDR1 cells; assay type: ADME, cell-based, Canis lupus familiaris
# [3] = Drug concentration in brain of mouse at 400 mg/kg, po qd; assay type: ADME, organism-based; conditions: in vivo, read-out: Ct
# [4] = Cmax in human CSF at 1000 mg, po bid administered for 8 weeks; assay type: ADME, organism-based, Cerebrospinal fluid; parameters: dose 1000 mg, time 8 weeks, route po
# [5] = Cmax in human CSF at 500 mg, po qd administered for 8 weeks; assay type: ADME, organism-based, Cerebrospinal fluid; parameters: time 8 weeks, dose 500 mg, route po
# [6] = Ratio of drug level in brain to blood in BALB/c mouse at 5 mg/kg, po; assay type: ADME, organism-based
# [7] = Cmax in rat at 3 mg/kg, iv; assay type: ADME, organism-based; parameters: dose 3 mg/kg, route iv; conditions: in vivo
# Sequence of hERG (KCNH2) (Q12809 whole entry): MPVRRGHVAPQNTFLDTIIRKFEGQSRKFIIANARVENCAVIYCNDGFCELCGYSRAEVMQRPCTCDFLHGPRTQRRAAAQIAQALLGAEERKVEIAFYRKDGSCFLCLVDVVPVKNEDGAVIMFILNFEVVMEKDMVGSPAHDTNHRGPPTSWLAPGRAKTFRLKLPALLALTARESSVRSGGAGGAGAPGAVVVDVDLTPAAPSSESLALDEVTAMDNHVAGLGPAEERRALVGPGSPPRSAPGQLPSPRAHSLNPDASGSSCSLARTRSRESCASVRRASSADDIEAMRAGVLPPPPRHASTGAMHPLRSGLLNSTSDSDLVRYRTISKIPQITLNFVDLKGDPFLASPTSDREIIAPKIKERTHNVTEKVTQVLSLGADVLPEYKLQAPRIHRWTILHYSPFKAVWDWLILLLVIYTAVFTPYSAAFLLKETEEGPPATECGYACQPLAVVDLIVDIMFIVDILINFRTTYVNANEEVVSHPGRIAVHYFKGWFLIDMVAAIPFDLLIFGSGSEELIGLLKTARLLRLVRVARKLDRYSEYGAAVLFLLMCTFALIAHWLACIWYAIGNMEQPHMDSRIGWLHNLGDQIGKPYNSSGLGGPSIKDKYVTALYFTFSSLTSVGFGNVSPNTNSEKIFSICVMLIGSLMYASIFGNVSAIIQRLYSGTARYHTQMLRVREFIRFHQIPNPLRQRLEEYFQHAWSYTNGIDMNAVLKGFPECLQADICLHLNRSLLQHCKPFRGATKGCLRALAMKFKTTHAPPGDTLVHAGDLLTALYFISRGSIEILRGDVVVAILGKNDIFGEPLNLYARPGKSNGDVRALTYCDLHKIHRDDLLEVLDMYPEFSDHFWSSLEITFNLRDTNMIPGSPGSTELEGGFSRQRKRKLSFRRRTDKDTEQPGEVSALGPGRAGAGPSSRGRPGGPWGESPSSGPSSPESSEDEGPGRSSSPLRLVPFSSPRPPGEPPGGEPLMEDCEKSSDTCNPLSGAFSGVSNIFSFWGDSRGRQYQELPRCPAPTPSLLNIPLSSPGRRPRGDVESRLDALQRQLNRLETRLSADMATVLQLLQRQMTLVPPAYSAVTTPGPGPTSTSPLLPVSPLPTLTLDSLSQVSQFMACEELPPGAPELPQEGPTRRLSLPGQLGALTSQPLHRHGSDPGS
smiles,measurement,setting,value
FC(F)(F)c1cc2c(NC3CCCc4ccccc43)ncnc2[nH]1 (stereo not drawn),EC50,[1],440 nM
C[C@@H]1C[C@@H](NC(=O)c2ncc(-c3cccc(C#N)c3)o2)CN1C#N,inhibition at 30 µM,hERG (KCNH2),30.2%
same,efflux ratio,[2],23
c1coc(CNc2ncnc3[nH]cnc23)c1 [KINETIN],concentration,[3],2970 nM
CN(C)C(=N)N=C(N)N [METFORMIN],Cmax,[4],741 nM
same,Cmax,[5],741 nM
CO[C@H]1C[C@@H]2CC[C@@H](C)[C@@](O)(O2)C(=O)C(=O)N2CCCC[C@H]2C(=O)O[C@H]([C@H](C)C[C@@H]2CC[C@@H](OCCO)[C@H](OC)C2)CC(=O)[C@H](C)/C=C(\C)[C@@H](O)[C@@H](OC)C(=O)[C@H](C)C[C@H](C)/C=C/C=C/C=C/1C [EVEROLIMUS],Kp,[6],0.015
CN(CCOc1ccc(CC2SC(=O)NC2=O)cc1)c1ccccn1 (stereo not drawn) [ROSIGLITAZONE],Cmax,[7],2960 nM
